Experimental data taken from US20090069359A1 (priority 2006, published 2009).

Legend:
[1] = tested on: facial wrinkles; conditions: human, in vivo
[2] = tested on: hair loss and baldness; design: species or system human; conditions: in vivo
[3] = tested on: erectile dysfunction; design: species or system human; conditions: in vivo
[4] = tested on: Peyronie's disease; design: species or system human; conditions: in vivo

## CC1=C(/C=C/C(C)=C/C=C/C(C)=C/C(=O)O)C(C)(C)CCC1 [Retin A, tretinoin]
[1]
  duration of wrinkle reducing effect: lasts up to one week
  period over which wrinkle reducing effect occurs: 72 h
  wrinkle treatment outcome: used successfully

## C[C@H]1C[C@H]2[C@@H]3CCC4=CC(=O)C=C[C@]4(C)[C@@]3(F)[C@@H](O)C[C@]2(C)[C@@]1(O)C(=O)CO [betamethasone]
[2]
  time of treatment after which new hair growth began: 30 days

## CC12CCC(CC1)C(C)(C)O2 [eucalyptol]
[3]
  erections: improved erections were obtained

## CC1CCC(C(C)C)C(O)C1 (stereo not drawn) [menthol]
[3]
  erections: improved erections were obtained

## Nc1cc(N2CCCCC2)nc(N)[n+]1[O-] [minoxidil]
[2]
  time of treatment after which new hair growth began: 30 days

## CC(C)NCC(O)COc1cccc2ccccc12 (stereo not drawn) [propranolol]
[4]
  penile curvature outcome: gradually attained a straightened penis
  time to straightened penis: ≤ 90 days

## botulinum toxina [Botox]
[1]
  duration of wrinkle reducing effect: lasts up to one week
  period over which wrinkle reducing effect occurs: 72 h
  wrinkle treatment outcome: used successfully
